Key:
[1] = system: NIH3T3 cells; assay: Myofibroblast differentiation in co-culture, αSMA and collagen I immunofluorescence; assay type: cell-based, murine; conditions: co-culture with TGFβ and activated MCs
Method: Given that both MCs and fibroblasts are present in the TME, the consequences of MC activation on myofibroblasts was explored using a co-culture assay in which murine MC/9 MCs and NIH3T3 myofibroblasts were separated by a transwell chamber with micropores that only allowed chemical communication (FIG. 13A). In this system, degranulation efficiency was determined by measuring the concentration of β-hexosaminidase (β-hex) in the supernatant. MC degranulation was induced through exposure to compound 48/80 (C48/80), which binds to the MRGPRB2 receptor (the orthologue of the human G-protein-coupled receptor MRGPRX2). […] Co-cultures treated with a vehicle control and Triton X-100 were used as internal assay control to evaluate background and maximum β-hex release, respectively. Transforming growth factor (TGF)-β1 was used as a fibroblast activator due to its capacity to induce a myofibroblast phenotype of the NIH3T3 cells. MC/9 cells were cultivated with NIH3T3 cells for 24 hours and then treated with either ketotifen or TGFβ for additional 24 hours in low serum medium, followed by a 30 minute sensitization with C48/80.
To further explore the MC-fibroblast interaction, the differentiation process of NIH3T3 cells in the co-culture system was monitored by assaying levels of αSMA and collagen I, which are two markers of the myofibroblast phenotype, by immunofluorescence staining (FIG. 13C, FIG. 13D, and FIG. 13E).

[2] = system: MCA205 tumors; assay: Vessel normalization, NG2/CD31 pericyte coverage and open lumen fraction; assay type: in vivo, mouse
Method: To assess whether MC inhibition could normalize the structure of tumor blood vessels, which can further improve perfusion, the effect of ketotifen on vascular permeability was assessed. […] Instead, an upregulation of IFN-γ transcription levels in MCA205 tumors following 10 mg/kg ketotifen treatment was observed (FIG. 1D). IFNγ is an angiostatic protein whose concentration in the TME has been related to vessel normalization and reduced vessel leakiness.

[3] = system: K7M2wt tumors; assay: Immunofluorescence of T cells (CD3, CD8/Ki67, CD3/CD31) in tumor sections; assay type: in vivo, mouse; conditions: Ki67/CD8 staining; concluding statement
Text: Immunofluorescence staining for Ki67 and CD8, performed as described above, confirmed the activation status of recruited CD8^+ T cells in osteosarcoma tumors (K7M2wt tumors) (FIGS. 9C-9D). K7M2wt tissue sections were then stained for pimonidazole adducts as a measure of hypoxia formation.
Immunofluorescence staining of CD3 and CD31 endothelial marker was used to assess the presence of T cells in the proximity of tumor vessel capillaries. PFA-fixed tissue cryosections of K7M2wt osteosarcoma tumors were incubated with primary rabbit anti-CD31 (Abcam, 1:50) and rat anti-CD3 (BioLegend, 1:50) overnight at 4° C. CD31 signal was detected with Alexa Fluor-488 anti-rabbit IgG (H+L) (Invitrogen, 1:400) and CD3 signal with Alexa Fluor-647 anti-rat IgG (H+L) (Invitrogen, 1:400) secondary antibodies. Cell nuclei were stained with DAPI. Tumor associated T cell to vessel content was determined by the overlapping CD31 and CD3 area fraction normalized to DAPI staining.

[4] = system: NIH3T3 cells; assay: NIH3T3 cell viability assessment; assay type: cell-based, murine; conditions: ketotifen or control for 2 or 24 hours
[5] = system: K7M2wt tumors; assay: Collagen staining with Picrosirius red; assay type: in vivo, mouse; conditions: 10 mg/kg ketotifen
Method: (§1) As tissue stiffness is caused in part by the degree of collagen expression by cancer associated fibroblasts (CAFs) and crosslinking, the intratumoral collagen levels were evaluated by histological staining using Picrosirius red.
(§2) Briefly, tumors were removed from four mice, washed twice in 1×PBS for 10 min, and incubated with 4% PFA overnight at 4° C. The fixative was aspirated, and samples were washed twice in 1×PBS for 10 min. Tissue samples were dehydrated in successive ethanol steps and xylene followed by paraffin embedding. Serial sections ([…]) of paraffin-embedded tissues were produced using the microtome (Accu-Cut SRM 200 Rotary Microtome, SAKURA), flattened out into water, and allowed to dry overnight at 37° C. Sections were then deparaffinized and rehydrated as routinely processed for histology. Following deparaffinization and rehydration, tissue sections were submerged in Picrosirius red stain for 1 hour at room temperature. Next, tissue sections were rinsed in two changes of acetic acid, followed by two changes of absolute ethanol and finally, mounted with DPX mountant for histology (Sigma). Collagen fibers were stained in red while the remaining tissue was pale yellow.

[6] = system: MCA205 tumors; assay: Collagen staining with Picrosirius red; assay type: in vivo, mouse; conditions: 10 mg/kg ketotifen
Method: as §1, §2

[7] = system: K7M2wt tumors; assay: Mast cell tryptase staining of tumors; assay type: in vivo, mouse; conditions: 10 mg/kg ketotifen
Text: (§3) Finally, to confirm the effect of ketotifen on MC inactivation, ketotifen-treated tumors were stained for tryptase, a serine protease unique to MCs with a role in myofibroblast proliferation and collagen synthesis.

[8] = system: MCA205 tumors; assay: Mast cell tryptase staining of tumors; assay type: in vivo, mouse; conditions: 10 mg/kg ketotifen
Text: as §3

[9] = system: MCA205 cells; assay: Re-challenge of long-term survivors with MCA205 cells; assay type: in vivo, mouse; conditions: re-challenge with 2.5×10^5 MCA205 cells s.c., 80 days after resection of primary tumors
Text: Since doxorubicin has potential to establish favorable immunogenic conditions within the TME, which could affect the efficacy of immunotherapy, it was investigated if this immune response is preserved against rechallenge of long-term survivors with the same cell line. Mice were considered long-term survivors if no tumor was detected 80 days after surgical resection of MCA205 primary tumors. Five long-term survivors from each treatment group were further re-challenged with 2.5×10^5 MCA205 cells injected subcutaneously into the flank region. Cells were prepared in 50 μl of PBS. Naïve mice were implanted in parallel as controls.

CN1CCC(=C2c3ccccc3CC(=O)c3sccc32)CC1 [ketotifen]
myofibroblast differentiation (αSMA and collagen I protein expression) [1]: impaired this myofibroblast differentiation | fraction of vessels with open lumen ([2]; MCA205 tumors, CD31 image analysis): increase the fraction of vessels with open lumen | pericyte coverage of the tumor vasculature (NG2/CD31 colocalization) ([2]; ketotifen 5, 10 and 25 mg/kg compared to the lowest dose and untreated control): increase | fraction of CD8+ T cells proliferating [3]: double | NIH3T3 cell viability [4]: did not significantly reduce | collagen deposition (Picrosirius red) [5]: significant reduction | collagen deposition (Picrosirius red) [6]: significant reduction | tryptase levels [7]: reduced | tryptase levels [8]: reduced | tumor development after re-challenge (mice out of five long-term survivors per group) [9]: developed progressively growing tumors

Reference: patent publication US20250041286A1, “CANCER TREATMENT USING KETOTIFEN IN COMBINATION WITH A CHECKPOINT INHIBITOR” (Materia Therapeutics Inc., priority 2021, published 2025)
